These are literature values, as cited in patent publication US8895065B2, “Single unit oral dose pharmaceutical composition comprising levodopa, carbidopa and entacapone or salts thereof” (Wockhardt Ltd., priority 2008, dated 2014).

As for `C[C@@](Cc1ccc(O)c(O)c1)(NN)C(=O)O` [Carbidopa], the solubility in water entry is on record as “slightly soluble”. As to `N[C@@H](Cc1ccc(O)c(O)c1)C(=O)O` [Levodopa, (−)-L-α-amino-β-(3,4-dihydroxybenzene)propanoic acid], the solubility in water entry is given as “slightly soluble”.
